Test results reported in US11459358B2, “Substances for targeting various selected organs or tissues” (BioMarin Technologies B.V., priority 2016, dated 2022).
Entries after “also recorded” stand apart in the source; their conditions may differ.

Experiments:
Human control myotubes = experiment: Uptake of FITC-labeled peptides in human control myotubes, fluorescence microscopy; assay type: cell-based; conditions: 2.25 μM FITC-labeled peptide
Procedure: Human control myoblasts (Km155.c25 cells, (Zhu et al., 2007)) were grown in skeletal muscle cell growth medium (Promocell, C-23160) supplemented with an extra 15% FBS (from, Gibco, the Netherlands) and 50 μg/ml gentamicin (PAA Laboratories) in uncoated flasks until 70-80% confluence was reached. Cells were plated in a 6 wells plate with 0.5% gelatin coated glass slides (Sigma Aldrich, the Netherlands), at a density of 1×10^5 cells per well, 48 hours prior to differentiation. Reaching 90% confluence, medium was switched to differentiation medium (Dulbecco's medium (without phenol red) with 2% FBS, 50 μg/ml gentamicin, 2% glutamax and 1% glucose (all from Gibco-BRL, the Netherlands)). Cells were allowed to differentiate for 3-5d.
(§1) Fluorescently labeled peptides were labeled using fluorescein isothiocyanate (FITC) and were obtained from Pepscan (Lelystad, the Netherlands). The FITC-label was attached to an Ahx (6-aminohexanoic acid) spacer which was added to the N-terminal end of the peptide, the C-terminal part was amidated and peptides were made circular by disulfide cyclization. Peptides according to the invention had cysteine flanking moieties wherein the flanking moieties were directly adjacent to the targeting sequences SEQ ID NOs: 14-25.
Human control myotubes and primary human cardiomyocytes were washed 2 times with PBS and incubated with 2.25 μM of FITC-labeled peptides in serum free media for 3 h at 37° C. and 5% CO2. Cells were washed 3 times with PBS and fixed with cold methanol (−20° C.) for 5 min (human control myotubes) or 10 min (human cardiomyocytes). Subsequently the glass slides were shortly air dried, and embedded on microscope slides with Vectashield hard set with 4′,6-diamidino-2-phenylindole (DAPI) mounting media (Vector laboratories). After drying 30 min, slides were analyzed with fluorescence microscopy (Leica DM5500 B) using a CCD camera (Leica DFC 360 FX). Representative pictures are shown. […]
The linear versions of the peptides comprising SEQ ID NO: 24 or SEQ ID NO: 25, in which the Cys residues were replaced with Ala residues, were labelled as described above and incubated with human control myotubes for 3 h (FIG. 3d).

human cardiomyocytes = experiment: Uptake of FITC-labeled peptides in human cardiomyocytes, fluorescence microscopy; assay type: cell-based; conditions: 2.25 μM FITC-labeled peptide
Procedure: Immortalized human cardiomyocytes (applied biological materials, Canada) were grown in Prigrow I medium supplemented with 10% FBS and 1% P/S in collagen coated flasks. Cells were plated in collagen coated glass slides in 6 wells plates and grown until confluence prior to experiments.
as §1
Human control myotubes and primary human cardiomyocytes were washed 2 times with PBS and incubated with 2.25 μM of FITC-labeled peptides in serum free media for 3 h at 37° C. and 5% CO2. Cells were washed 3 times with PBS and fixed with cold methanol (−20° C.) for 5 min (human control myotubes) or 10 min (human cardiomyocytes). Subsequently the glass slides were shortly air dried, and embedded on microscope slides with Vectashield hard set with 4′,6-diamidino-2-phenylindole (DAPI) mounting media (Vector laboratories). After drying 30 min, slides were analyzed with fluorescence microscopy (Leica DM5500 B) using a CCD camera (Leica DFC 360 FX). Representative pictures are shown.
FITC-labeled peptides comprising SEQ ID NO:24 or SEQ ID NO: 25 were incubated at a dose of 2.25 μM, slides were imbedded in mounting media containing DAPI and analyzed with Leica microscopy using a CCD camera (Leica DFC 360 FX); Human control myotubes for 1 or 3 h (FIG. 3a) and human cardiomyocytes for 3 h (FIG. 3b).

| Substance | fluorescence in the cells (Human control myotubes; 1 h) | fluorescence in the cells (Human control myotubes; 3 h) | fluorescence in the cells (Human control myotubes; 3 h, listed as SEQ ID NO:24) | fluorescence in the cells (human cardiomyocytes; 3 h) | fluorescence in the cells (human cardiomyocytes; 3 h, listed as SEQ ID NO:24) | fluorescence in the cells (Human control myotubes; 10 minutes) | fluorescence in the cells (human cardiomyocytes; 10 minutes) |
| --- | --- | --- | --- | --- | --- | --- | --- |
| SEQ ID NO: 24: FITC-Ahx N-terminal, C-terminal amide, disulfide-cyclized peptide with Cys residues flanking targeting sequence LNSLFGS (N-terminal FITC-Ahx, C-terminal amide, disulfide cyclized; Randomly generated peptide) | clear fluorescence throughout the cells and in the nuclei | Brightest fluorescence | clear fluorescence throughout the cells and in the nuclei | Brightest fluorescence | clear fluorescence throughout the cells and in the nuclei |  |  |
| SEQ ID NO: 25: FITC-Ahx N-terminal, C-terminal amide, disulfide-cyclized peptide with Cys residues flanking targeting sequence QLFPLFR (N-terminal FITC-Ahx, C-terminal amide, disulfide cyclized; Randomly generated peptide) | clear fluorescence throughout the cells and in the nuclei | Brightest fluorescence; also recorded: clear fluorescence throughout the cells and in the nuclei |  | Brightest fluorescence; also recorded: clear fluorescence throughout the cells and in the nuclei |  | positive fluorescence | positive fluorescence |
